This passage reports Activity and EC50 results from ChEMBL document CHEMBL1150880, “Novel and insecticidal isobutylamides from dinosperma erythrococca” (J Nat Prod, 1998).

Calls of active or inactive are those of the source. The rule behind the calls is not given here.

The test system of assay [1] is Musca domestica. As to the kind of experiment: Insecticidal activity against housefly at 500 ppm after 3 to 5 days. Type of assay: functional, organism-based.
The subject of assay [2] is Heliothis virescens. As to the kind of experiment: Insecticidal activity against tobacco budworm at 500 ppm after 3 to 5 days. In kind it is functional.
For assay [3], the system named is Heliothis virescens. Nature of the assay: Insecticidal activity against tobacco budworm at 2500 ppm after 3 to 5 days. Type of assay: functional, organism-based.
In assay [4] the test system is Musca domestica. Nature of the assay: Insecticidal activity against housefly at 2500 ppm after 3 to 5 days. Type of assay: functional, organism-based.
The test system of assay [5] is Musca domestica. Nature of the assay: Insecticidal activity against housefly at 1000 ppm after 3 to 5 days. In kind it is functional, organism-based.
The subject of assay [6] is Heliothis virescens. Nature of the assay: Insecticidal activity against tobacco budworm at 1000 ppm after 3 to 5 days. In kind it is functional, organism-based.
The test system of assay [7] is Musca domestica. As to the kind of experiment: Insecticidal activity against housefly after 3 to 5 days relative to permethrin. In kind it is functional.
Assay [8] concerns Musca domestica. As to the kind of experiment: Insecticidal activity against housefly after 3 to 5 days. In kind it is functional, organism-based.
Assay [9] deals with Musca domestica. As to the kind of experiment: Insecticidal activity against housefly after 3 to 5 days relative to cypermethrin. In kind it is functional, organism-based.
Assay [10] deals with Heliothis virescens. As to the kind of experiment: Insecticidal activity against tobacco budworm after 3 to 5 days. Type of assay: functional, organism-based.
In assay [11] the test system is Heliothis virescens. Nature of the assay: Insecticidal activity against tobacco budworm after 3 to 5 days relative to profenofos. In kind it is functional.

As to `COc1c2c(cc3ccoc13)CCC(C/C=C/C=C/C(=O)NCC(C)C)O2` (stereo not given), the outcome in the assay with Musca domestica [1] and in the assay on Heliothis virescens [2] was inactive.

With `CC(C)CNC(=O)/C=C/c1ccc2c(c1)OCO2`, the result with Heliothis virescens [3] and in the assay with Musca domestica [4] was inactive.

For `CCCCC/C=C/C=C/C(=O)NCC(C)C`, the result in the assay on Musca domestica [5] and in the assay with Heliothis virescens [6] was inactive. For the same molecule, the result with Musca domestica [4] was Active.

`CC(C)(O)CNC(=O)/C=C/C=C/Cc1ccccc1` returned an Activity in the assay with Heliothis virescens [2] of 80%.

As to `CC(C)CNC(=O)/C=C/C=C/CC1CCc2ccc(Cl)cc2C1` (stereo not given), the Activity in the assay on Musca domestica [7] is given as 40%.

Consider `CC(C)CNC(=O)/C=C/C=C/Cc1ccccc1`, for which the EC50 in the assay on Musca domestica [8] was found to be 59.9 ppm. The result in the assay with Musca domestica [1] was Active. Besides, in the assay on Musca domestica [9], the Activity is recorded as 1.8%.

For `CC(C)CNC(=O)CC1CCc2cc3c(cc2O1)OCO3` (stereo not given), the result in the assay on Musca domestica [1] and in the assay on Heliothis virescens [2] was inactive.

Consider `CC(C)CNC(=O)/C=C/C=C/CC1CCc2cc3c(cc2O1)OCO3` (stereo not given) [ERYTHROCOCCAMIDE A], for which the figures for the EC50 in the assay on Musca domestica [8], in the assay with Heliothis virescens [10] and in the assay on Musca domestica [9] were 20.2 ppm, 74.2 ppm and 3 ppm, respectively. In the assay with Musca domestica [1], the outcome was Active. Moreover, the Activity in the assay on Musca domestica [7] was determined as 9%; with Heliothis virescens [11], 9.9%.
